{
  "source": "patent US11819019B2",
  "about": "“Protein-free semen cryopreservation” (University of Saskatchewan, priority 2017, dated 2023)",
  "key": {"equine sperm": {"test_system": "equine sperm", "details": "Vidament et al, 2005; cited from earlier work"}, "bull sperm [1]": {"test_system": "bull sperm", "assay": "Frozen-thaw longevity of bull sperm with cell penetrating peptides, CASA at 0, 2 and 4 hrs (Example 8)", "format": "cell-based", "experimental": "Semen was collected from four beef bulls using electro-ejaculator. Immediately after collection, 0.5 μM SS31 or mTP4 was added per ml semen. Concentration of up to 20 μM SS31 or mTP4 were also used. Semen transported to Cryobiology Lab where semen was analyzed with CASA. Semen was further diluted with egg yolk extender to 50 million per ml, packaged in straws and frozen following a freezing curve developed in our lab. Frozen semen with and without SS31 was thawed and CASA analysis was conducted at 0 (<15 min), 2 and 4 hrs. Structural characters, i.e. plasma membrane and acrosome, were also analyzed using FITC-PNA and PI assay with flow cytometer, as described in Examples 4 and 5."}, "bull sperm [2]": {"test_system": "bull sperm", "assay": "Motility of fresh bull sperm after exposure to cell penetrating peptides, CASA (Example 8)", "format": "cell-based", "details": "CPPs added at 37° C., FIG. 13", "experimental": "Semen was collected from four bulls using electro-ejaculator. Semen was analyzed with Computer Assisted Semen Analysis (CASA) and washed (2×) with tris citric acid buffer (TB). The washed semen was diluted to 2.2 million/ml with TB. Semen (46 μl) was mixed with 4 μl of 100 μM solution of SS31 or mTP4. TB buffer alone was added in the control sample. […] After incubation, sperm motility was analyzed by CASA and then cells were treated with 2.5 μl propidium iodide (50 μg/ml) or 3 μl SYBR-14. Sperm were fixed with 10 μl of 10%-formaldehyde and another 500 μl PBS was added before flowcytometry analysis."}},
  "note": "Where no end group is shown, it is not given here. [ ]: non-standard residue; d: D form. Dmt = Cc1cc(O)cc(C)c1C[C@H](N)C(=O)O",
  "data": [
    {"compound": "OCC(O)CO", "note": "[Glycerol, glycerol]", "values": [
      {"measurement": "concentration in a preservation medium reported to be toxic to equine sperm", "setting": "equine sperm", "result": "greater than 3.5%"}
    ]},
    {"compound": "D-Arg-DMT-Lys-Phe [SS31]", "values": [
      {"measurement": "Percent decline motility over time", "setting": "bull sperm [1]; 4 hr post-thaw, vs control and mTP4 groups, FIG. 15", "result": "lesser"},
      {"measurement": "post-thaw total sperm motility and progressive motility vs control", "setting": "bull sperm [1]; semen frozen in egg yolk extender, 0, 2 and 4 hrs post-thaw, FIG. 14", "result": "better"},
      {"measurement": "sperm motility and progressive motility as compared control", "setting": "bull sperm [2]", "result": "improved"}
    ]},
    {"compound": "DMT-D-MWWRRSRTNSLRYT ([Dmt][dM]WWRRSRTNSLRYT) [mTP4]", "values": [
      {"measurement": "sperm motility and progressive motility as compared control", "setting": "bull sperm [2]", "result": "improved"}
    ]}
  ]
}
